The text below walks through data of PubChem BioAssay (NCI).

Some test systems named below: MOLT-4 leukemia; SNB-75 CNS; HOP-92 NSCLC; U251 CNS; OVCAR-3 ovarian; HOP-62 NSCLC; SNB-19 CNS; MDA-MB-435; LOX IMVI melanoma; SF-295 CNS.
Common to all, as to assay: NCI anticancer screen, dose series, 48 h

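1) Cells in 96-well plates. 2) Compound, 48 h, 5 concentrations. 3) Linear interpolation between surrounding doses. 4) Unreached endpoint = highest concentration. GI50 is the concentration that inhibits growth by half. TGI marks complete inhibition of growth.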

`Cn1c(I)c(C#C[Si](C)(C)C)c(=O)n(C(=O)c2ccccc2)c1=O`: the GI50 was 1.25 µM with MOLT-4 leukemia; 4.2 µM with SNB-75 CNS; 2.6 µM with HOP-92 NSCLC; 12.5 µM in the test on U251 CNS; 1790 nM in the test on OVCAR-3 ovarian; 11.7 µM with HOP-62 NSCLC. Also, the GI50 with SNB-19 CNS is 15.5 µM; in the test with MDA-MB-435, 3.42 µM; in the test with LOX IMVI melanoma, 2.79 µM; with SF-295 CNS, 21.5 µM. Moreover, the TGI in the test on MOLT-4 leukemia is more than 21.9 µM; in the test with SNB-75 CNS, 20.5 µM; in the test on HOP-92 NSCLC, 13.6 µM; in the test with U251 CNS, 25 µM; in the test on OVCAR-3 ovarian, 3.29 µM; in the test on HOP-62 NSCLC, 25.8 µM. In addition, the TGI in the test with SNB-19 CNS came out at 31.8 µM; in the test on MDA-MB-435, 13.4 µM; in the test with LOX IMVI melanoma it was 8.26 µM; with SF-295 CNS, 48.7 µM.

As to `NC(N)=N/N=C\c1ccc(OCc2ccccc2)cc1`, the GI50 with MOLT-4 leukemia was 3.36 µM; in the test on SNB-75 CNS it was 1.64 µM; in the test with HOP-92 NSCLC it was 1.05 µM; with U251 CNS, 1.62 µM; in the test on OVCAR-3 ovarian, 2200 nM; with HOP-62 NSCLC, 2.42 µM. Besides, the GI50 with SNB-19 CNS was 3.08 µM; in the test on MDA-MB-435, 1.68 µM; with LOX IMVI melanoma, 1.53 µM; in the test with SF-295 CNS it was 2.25 µM. The TGI with MOLT-4 leukemia turned out to be 9.36 µM; in the test with SNB-75 CNS it was 4.7 µM; in the test with HOP-92 NSCLC, 4.24 µM; in the test with U251 CNS, 3.17 µM; with OVCAR-3 ovarian, 5.75 µM; in the test with HOP-62 NSCLC, 10.5 µM. Besides, the TGI in the test with SNB-19 CNS was determined as 15.4 µM; in the test on MDA-MB-435 it was 4.1 µM; in the test with LOX IMVI melanoma, 2.96 µM; with SF-295 CNS, 7.02 µM.

As for `COc1ccc2c(c1)C(=O)c1c-2c(OCCCN(C)C)nc2cc(Br)ccc12`, the GI50 was 3.09 µM with MOLT-4 leukemia; 1.57 µM with SNB-75 CNS; 6.12 µM in the test on HOP-92 NSCLC; 2.1 µM in the test on U251 CNS; 3450 nM with OVCAR-3 ovarian; 1.81 µM in the test on HOP-62 NSCLC. Also, the GI50 was 3.08 µM in the test with SNB-19 CNS, 5.45 µM in the test with MDA-MB-435, 11.3 µM with LOX IMVI melanoma and 7.3 µM with SF-295 CNS. Also, the TGI in the test on MOLT-4 leukemia was 18.7 µM; in the test with SNB-75 CNS, 4.44 µM; in the test with HOP-92 NSCLC, 20.4 µM; in the test on U251 CNS it was 4.22 µM; in the test with OVCAR-3 ovarian, 13.4 µM; in the test on HOP-62 NSCLC, 4.29 µM. The TGI in the test on SNB-19 CNS is 11.8 µM; in the test with MDA-MB-435, 18.1 µM; in the test on LOX IMVI melanoma, 23.7 µM; in the test with SF-295 CNS, 20.7 µM.

Turning to `COC(=O)C(C(=O)C(=O)Nc1c(C)cccc1C(C)(C)C)c1nc2ccc(Cl)cc2[nH]c1=O` (stereo not given), the TGI with MOLT-4 leukemia, in the test with SNB-75 CNS, in the test with HOP-92 NSCLC, in the test on U251 CNS, in the test on OVCAR-3 ovarian and with HOP-62 NSCLC was more than 100 µM in each case. For the same molecule, the TGI in the test on SNB-19 CNS, in the test with MDA-MB-435, in the test on LOX IMVI melanoma and with SF-295 CNS was more than 100 µM each time.

On to `O=S(=O)(NC1=NCCN1C(=S)SN1CCn2c1nsc2=S)c1ccc(Cl)cc1`, for which the GI50 in the test on MOLT-4 leukemia is 3.56 µM; in the test on SNB-75 CNS, 12.3 µM; in the test with HOP-92 NSCLC it was 11.4 µM; with U251 CNS, 10.9 µM; in the test with OVCAR-3 ovarian, 2540 nM; in the test with HOP-62 NSCLC it was 19.5 µM. The GI50 with SNB-19 CNS was 14.5 µM; with MDA-MB-435 it was 3.02 µM; with LOX IMVI melanoma, 3.84 µM; in the test with SF-295 CNS it was 16.7 µM. Besides, the TGI in the test on MOLT-4 leukemia came out at 21.7 µM; with SNB-75 CNS, 35.6 µM; in the test on HOP-92 NSCLC, 25.2 µM; with U251 CNS, 24.4 µM; in the test on OVCAR-3 ovarian, 12.2 µM; with HOP-62 NSCLC, 41 µM. The TGI with SNB-19 CNS is 36.4 µM; with MDA-MB-435, 10.5 µM; with LOX IMVI melanoma, 15.7 µM; in the test with SF-295 CNS it was 34.8 µM.

On to `CN(C)CCC(=O)Nc1ccc(-n2cc(-c3cccc(NC(=S)Nc4cccc(-c5cn(-c6ccc(NC(=O)CCN(C)C)cc6)nn5)c4)c3)nn2)cc1`, for which the GI50 in the test on MOLT-4 leukemia is 20.7 µM; in the test with SNB-75 CNS, 25.6 µM; in the test on HOP-92 NSCLC, 19.5 µM; in the test on U251 CNS, 21.4 µM; with OVCAR-3 ovarian, 16400 nM; in the test on HOP-62 NSCLC, 33.1 µM. Moreover, the GI50 in the test with SNB-19 CNS is 49.5 µM; in the test with MDA-MB-435 it was 26.7 µM; in the test on LOX IMVI melanoma, 7.7 µM; with SF-295 CNS, 20.2 µM. For the same molecule, the TGI in the test with MOLT-4 leukemia was 84.6 µM; in the test on SNB-75 CNS, 65.6 µM; with HOP-92 NSCLC it was 53.9 µM; with U251 CNS it was 80.8 µM; with OVCAR-3 ovarian, 53.4 µM; in the test on HOP-62 NSCLC it was more than 100 µM. Further, the TGI in the test on SNB-19 CNS is more than 100 µM; in the test on MDA-MB-435, more than 100 µM; with LOX IMVI melanoma it was more than 100 µM; with SF-295 CNS it was 49 µM.

On to `CC(C)(C)C[C@H]1N[C@@H](C(=O)NC2CCC(O)CC2)[C@H](c2cccc(Cl)c2F)[C@@]12C(=O)Nc1cc(Cl)ccc12` (stereo not given in full), for which the GI50 was 0.314 µM with MOLT-4 leukemia; 3.78 µM in the test on SNB-75 CNS; 3.28 µM in the test with HOP-92 NSCLC; 7.86 µM with U251 CNS; 8680 nM with OVCAR-3 ovarian; 11.5 µM with HOP-62 NSCLC. Also, the GI50 in the test on SNB-19 CNS is 5.93 µM; with MDA-MB-435, 4.8 µM; in the test with LOX IMVI melanoma, 0.577 µM; in the test on SF-295 CNS, 3.46 µM. Also, the TGI came out at 1.81 µM in the test on MOLT-4 leukemia; 17.9 µM in the test with SNB-75 CNS; 15 µM in the test on HOP-92 NSCLC; 21.9 µM in the test with U251 CNS; 21 µM in the test with OVCAR-3 ovarian; 27.7 µM with HOP-62 NSCLC. Besides, the TGI worked out at 21.3 µM in the test with SNB-19 CNS, 16.6 µM in the test on MDA-MB-435, 18.1 µM in the test on LOX IMVI melanoma and 13.6 µM in the test on SF-295 CNS.
